Data from patent US20240376099A1, “COMPOUNDS AND COMPOSITIONS AS INHIBITORS OF ENDOSOMAL TOLL-LIKE RECEPTORS” (Novartis AG, priority 2016, published 2024).

Molecular target: T1, TLR7 (Homo sapiens, UniProt Q9NYK1)
T1 construct: Fresh blood was collected from normal human donors; endogenous in cells; host or cells: human PBMCs from fresh donor blood
T1 sequence (Q9NYK1 27-1049): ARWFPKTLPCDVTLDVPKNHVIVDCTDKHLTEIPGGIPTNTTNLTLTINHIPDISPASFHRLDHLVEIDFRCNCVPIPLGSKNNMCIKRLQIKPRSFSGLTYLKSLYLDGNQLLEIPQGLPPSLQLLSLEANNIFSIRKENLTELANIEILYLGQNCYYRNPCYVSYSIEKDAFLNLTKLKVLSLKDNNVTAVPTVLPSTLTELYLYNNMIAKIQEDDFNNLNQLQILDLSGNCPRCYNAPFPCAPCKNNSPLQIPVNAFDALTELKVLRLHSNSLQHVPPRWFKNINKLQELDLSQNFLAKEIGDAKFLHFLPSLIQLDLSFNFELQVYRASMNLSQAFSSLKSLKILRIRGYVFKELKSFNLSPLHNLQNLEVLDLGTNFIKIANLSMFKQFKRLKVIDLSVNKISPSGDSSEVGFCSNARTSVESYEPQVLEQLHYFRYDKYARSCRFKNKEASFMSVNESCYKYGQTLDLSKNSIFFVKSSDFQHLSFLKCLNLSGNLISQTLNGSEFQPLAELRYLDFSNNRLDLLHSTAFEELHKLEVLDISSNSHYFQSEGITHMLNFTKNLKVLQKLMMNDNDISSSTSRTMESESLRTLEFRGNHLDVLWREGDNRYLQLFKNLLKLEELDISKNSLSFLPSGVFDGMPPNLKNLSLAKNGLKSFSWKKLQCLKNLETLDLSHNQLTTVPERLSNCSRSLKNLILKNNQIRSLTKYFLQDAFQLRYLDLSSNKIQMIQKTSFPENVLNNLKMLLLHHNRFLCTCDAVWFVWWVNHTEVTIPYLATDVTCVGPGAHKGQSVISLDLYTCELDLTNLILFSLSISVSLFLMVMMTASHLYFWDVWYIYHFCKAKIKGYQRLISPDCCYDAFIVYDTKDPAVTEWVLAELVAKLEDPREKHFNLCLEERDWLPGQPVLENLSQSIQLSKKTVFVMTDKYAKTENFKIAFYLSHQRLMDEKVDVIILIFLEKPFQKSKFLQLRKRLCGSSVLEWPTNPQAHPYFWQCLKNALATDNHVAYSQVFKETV
Assay: huPBMC TLR7 Antagonist IFNα Assay
Format: cell-based
Details: human PBMCs stimulated with ssRNA40 10 μg/mL (DOTAP), 14-16 hrs; IFNα2b AlphaLISA read-out
How it was run: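 Human PBMCs from fresh donor blood (150,000 cells/well) stimulated 14–16 h at 37 °C with DOTAP-complexed ssRNA40 (final 1 μg/ml for TLR8, 10 μg/mL for TLR7) or ODN2216 (final 0.3 μM, TLR9), 0.25% DMSO, ten-point 1/3 compound dilutions. Supernatant IL-6 read by HTRF (TLR8); IFNα by IFNα2b AlphaLISA (TLR7/TLR9).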

Row | SMILES | IC50 [µM]
1 | [2H]C([2H])([2H])n1ncc2c(N3CCc4c(c(C)nn4CC45CCC(N)(CC4)CC5)C3)cc(C)nc21 [Compound No. 140, 4-((3-methyl-5-(6-methyl-1-(methyl-d3)-1H-pyrazolo[3,4-b]pyridin-4-yl)-4,5,6,7-tetrahydro-1H-pyrazolo[4,3-c]pyridin-1-yl)methyl)bicyclo[2.2.2]octan-1-amine] | 0.027
2 | Cc1cc(N2CCc3c(c(C)nn3CC34CCC(NC(=O)OC(C)(C)C)(CC3)CC4)C2)c2ccncc2n1 [Compound No. 147, tert-butyl (4-((3-methyl-5-(2-methyl-1,7-naphthyridin-4-yl)-4,5,6,7-tetrahydro-1H-pyrazolo[4,3-c]pyridin-1-yl)methyl)bicyclo[2.2.2]octan-1-yl)carbamate] | 0.033
3 | Cn1ncc2c(N3CCc4c(cnn4CC45CCC(N)(CC4)CC5)C3)nc(N)nc21 [compound 11, 4-(1-((4-aminobicyclo[2.2.2]octan-1-yl)methyl)-6,7-dihydro-1H-pyrazolo[4,3-c]pyridin-5(4H)-yl)-1-methyl-1H-pyrazolo[3,4-d]pyrimidin-6-amine] | 0.318
4 | Cc1c2c(nn1CC13CCC(N)(CC1)CC3)CCN(c1nc(N)nc3c1cnn3C)C2 [compound 14, 4-(2-((4-aminobicyclo[2.2.2]octan-1-yl)methyl)-3-methyl-6,7-dihydro-2H-pyrazolo[4,3-c]pyridin-5(4H)-yl)-1-methyl-1H-pyrazolo[3,4-d]pyrimidin-6-amine] | 0.241
5 | Cc1nc(N2CCc3c(c(C)nn3CC34CCC(N5CCCC5)(CC3)CC4)C2)c2c(n1)c(C)nn2C [compound 17, 1,3,5-trimethyl-7-(3-methyl-1-((4-(pyrrolidin-1-yl)bicyclo[2.2.2]octan-1-yl)methyl)-6,7-dihydro-1H-pyrazolo[4,3-c]pyridin-5(4H)-yl)-1H-pyrazolo[4,3-d]pyrimidine] | 0.258
6 | CCNCC(=O)NC12CCC(Cn3nc(C)c4c3CCN(c3nc(C)nc5[nH]ncc35)C4)(CC1)CC2 [compound 20, 2-(ethylamino)-N-(4-((3-methyl-5-(6-methyl-1H-pyrazolo[3,4-d]pyrimidin-4-yl)-4,5,6,7-tetrahydro-1H-pyrazolo[4,3-c]pyridin-1-yl)methyl)bicyclo[2.2.2]octan-1-yl)acetamide] | 0.025
7 | Cc1nc(N2CCc3c(c(C)nn3CC34CCC(N5CCOCC5)(CC3)CC4)C2)c2cn[nH]c2n1 [compound 21, 4-(4-((3-methyl-5-(6-methyl-1H-pyrazolo[3,4-d]pyrimidin-4-yl)-4,5,6,7-tetrahydro-1H-pyrazolo[4,3-c]pyridin-1-yl)methyl)bicyclo[2.2.2]octan-1-yl)morpholine] | 0.024
8 | Cc1nc(N2CCc3c(c(C)nn3CC34CCC(NCC5COC5)(CC3)CC4)C2)c2c(n1)c(C)nn2C [compound 23, 4-((3-methyl-5-(1,3,5-trimethyl-1H-pyrazolo[4,3-c]pyrimidin-7-yl)-4,5,6,7-tetrahydro-1H-pyrazolo[4,3-c]pyridin-1-yl)methyl)-N-(oxetan-3-ylmethyl)bicyclo[2.2.2]octan-1-amine] | 0.666

Continued by falling IC50, values first:

Row | IC50 [µM] | SMILES
9 | 0.841 | Cn1ncc2c(N3CCc4nn(CC56CCC(N)(CC5)CC6)cc4C3)nc(N)nc21 [compound 12, 4-(2-((4-aminobicyclo[2.2.2]octan-1-yl)methyl)-6,7-dihydro-2H-pyrazolo[4,3-c]pyridin-5(4H)-yl)-1-methyl-1H-pyrazolo[3,4-d]pyrimidin-6-amine]
10 | 0.288 | Cc1nn(CC23CCC(N)(CC2)CC3)c2c1CN(c1nc(Cl)nc3cnn(C)c13)CC2 [compound 15, 4-((5-(5-chloro-1-methyl-1H-pyrazolo[4,3-d]pyrimidin-7-yl)-3-mehtyl-4,5,6,7-tetrahydro-1H-pyrazolo[4,3-c]pyridin-1-yl)methyl)bicyclo[2.2.2]octan-1-amine]
11 | 0.245 | COCCNC12CCC(Cn3nc(C)c4c3CCN(c3nc(C)nc5c(C)nn(C)c35)C4)(CC1)CC2 [compound 18, N-(2-methoxyethyl)-4-((3-methyl-5-(1,3,5-trimethyl-1H-pyrazolo[4,3-d]pyrimidin-7-yl)-4,5,6,7-tetrahydro-1H-pyrazolo[4,3-c]pyridin-1-yl)methyl)bicyclo[2.2.2]octan-1-amine]
12 | 0.201 | Cc1nc(N2CCc3c(c(C)nn3CC34CCC(NC(=O)CCN(C)C)(CC3)CC4)C2)c2c(n1)c(C)nn2C [compound 24, 3-(dimethyalmino)-N-(4-((3-methyl-5-(1,3,5-trimethyl-1H-pyrazolo[4,3-d]pyrimidin-7-yl)-4,5,6,7-tetrahydro-1H-pyrazolo[4,3-c]pyridin-1-yl)methyl)bicyclo[2.2.2]octan-1-yl)propanamide]
13 | 0.055 | Cc1nc(N2CCc3c(c(C)nn3CC34CCC(N5CCOCC5)(CC3)CC4)C2)c2cnn(C)c2n1 [compound 19, 4-(4-((5-(1,6-dimethyl-1H-pyrazolo[3,4-d]pyrimidin-4-yl)-3-methyl-4,5,6,7-tetrahydro-1H-pyrazolo[4,3-c]pyridin-1-yl)methyl)bicyclo[2.2.2]octan-1-yl)morpholine]
14 | 0.042 | Cc1nn(CC23CCC(N)(CC2)CC3)c2c1CN(c1nc(N)nc3c1cnn3C)CC2 [compound 13, 4-(1-((4-aminobicyclo[2.2.2]octan-1-yl)methyl)-3-methyl-6,7-dihydro-1H-pyrazolo[4,3-c]pyridin-5(4H)-yl)-1-methyl-1H-pyrazolo[3,4-d]pyrimidin-6-amine]
15 | 0.033 | CCNCC(=O)NC12CCC(Cn3nc(C)c4c3CCN(c3nc(C)nc5c(C)nn(C)c35)C4)(CC1)CC2 [compound 22, 2-(ethylamino)-N-(4-((3-methyl-5-(1,3,5-trimethyl-1H-pyrazolo[4,3-c]pyrimidin-7-yl)-4,5,6,7-tetrahydro-1H-pyrazolo[4,3-c]pyridin-1-yl)methyl)bicyclo[2.2.2]octan-1-yl)acetamide]
16 | 0.025 | Cc1nc(N2CCc3c(c(C)nn3CC34CCC(N5CCCC5)(CC3)CC4)C2)c2cnn(C)c2n1 [compound 16, 1,6-dimethyl-4-(3-methyl-1-((4-(pyrrolidin-1-yl)bicyclo[2.2.2]octan-1-yl)methyl)-6,7-dihydro-1H-pyrazolo[4,3-c]pyridin-5(4H)-yl)-1H-pyrazolo[3,4-d]pyrimidine]
17 | 0.012 | Cc1cc(N2CCc3c(c(C)nn3CC34CCC(NC(=O)CN5CC(F)C5)(CC3)CC4)C2)c2cnn(C)c2n1 [Compound No. 133, N-(4-((5-(1,6-dimethyl-1H-pyrazolo[3,4-b]pyridin-4-yl)-3-methyl-4,5,6,7-tetrahydro-1H-pyrazolo[4,3-c]pyridin-1-yl)methyl)bicyclo[2.2.2]octan-1-yl)-2-(3-fluoroazetidin-1-yl)acetamide]
18 | 0.01 | Cc1cc(N2CCc3c(c(C)nn3CC34CCC(NC(=O)CO)(CC3)CC4)C2)c2cnn(C)c2n1 [Compound No. 135, N-(4-((5-(1,6-dimethyl-1H-pyrazolo[3,4-b]pyridin-4-yl)-3-methyl-4,5,6,7-tetrahydro-1H-pyrazolo[4,3-c]pyridin-1-yl)methyl)bicyclo[2.2.2]octan-1-yl)-2-hydroxyacetamide]
19 | 0.006 | Cc1cc(N2CCc3c(c(C)nn3CC34CCC(NC(=O)CN5CC(O)C5)(CC3)CC4)C2)c2cnn(C)c2n1 [Compound No. 136, N-(4-((5-(1,6-dimethyl-1H-pyrazolo[3,4-b]pyridin-4-yl)-3-methyl-4,5,6,7-tetrahydro-1H-pyrazolo[4,3-c]pyridin-1-yl)methyl)bicyclo[2.2.2]octan-1-yl)-2-(3-hydroxyazetidin-1-yl)acetamide]
